Toxic doses and inconclusive results are not listed. Rule as the data show it: active = T/C of 150% or more; inactive = T/C below 125%.
System: L1210 leukemia ip in BDF1 mice, survival T/C
Test: NCI In Vivo Anticancer Drug Screen. Data for tumor model L1210 Leukemia (intraperitoneal) in B6D2F1 (BDF1) mice
Settings: endpoint: mean survival time, higher = longer survival
Outline: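 Tumor was transplanted into mice, which were then dosed with test compound or vehicle alone. Survival was recorded for each group, and the treated figure was expressed relative to the control figure.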

[1] = dose: 50.0 mg/kg/injection, schedule: Q01DX001 (ip), vehicle: carboxymethylcellulose (CMC)
[2] = dose: 100.0 mg/kg/injection, schedule: Q01DX001 (ip), vehicle: carboxymethylcellulose (CMC)
[3] = dose: 200.0 mg/kg/injection, schedule: Q01DX001 (ip), vehicle: carboxymethylcellulose (CMC)
[4] = dose: 400.0 mg/kg/injection, schedule: Q01DX001 (ip), vehicle: carboxymethylcellulose (CMC)
[5] = dose: 100.0 mg/kg/injection, schedule: Q04DX003 (ip), vehicle: saline with Tween-80
[6] = dose: 200.0 mg/kg/injection, schedule: Q04DX003 (ip), vehicle: saline with Tween-80
[7] = dose: 400.0 mg/kg/injection, schedule: Q04DX003 (ip), vehicle: saline with Tween-80
[8] = dose: 75.0 mg/kg/injection, schedule: Q01DX001 (ip), vehicle: saline
[9] = dose: 150.0 mg/kg/injection, schedule: Q01DX001 (ip), vehicle: saline
[10] = dose: 100.0 mg/kg/injection, schedule: Q04DX002 (ip), vehicle: Klucel (hydroxypropylcellulose) (HPC)
[11] = dose: 200.0 mg/kg/injection, schedule: Q04DX002 (ip), vehicle: Klucel (hydroxypropylcellulose) (HPC)
[12] = dose: 400.0 mg/kg/injection, schedule: Q04DX002 (ip), vehicle: Klucel (hydroxypropylcellulose) (HPC)
[13] = dose: 100.0 mg/kg/injection, schedule: Q01DX009 (ip), vehicle: saline with Tween-80
[14] = dose: 200.0 mg/kg/injection, schedule: Q01DX009 (ip), vehicle: saline with Tween-80
[15] = dose: 100.0 mg/kg/injection, schedule: Q01DX009 (ip), vehicle: Klucel (hydroxypropylcellulose) (HPC)
[16] = dose: 50.0 mg/kg/injection, schedule: Q01DX009 (ip), vehicle: saline with Tween-80
[17] = dose: 2.5 mg/kg/injection, schedule: Q01DX009 (ip), vehicle: saline
[18] = dose: 5.0 mg/kg/injection, schedule: Q01DX009 (ip), vehicle: saline
[19] = dose: 10.0 mg/kg/injection, schedule: Q01DX009 (ip), vehicle: saline
[20] = dose: 100.0 mg/kg/injection, schedule: Q04DX003 (ip), vehicle: Klucel (hydroxypropylcellulose) (HPC)
[21] = dose: 200.0 mg/kg/injection, schedule: Q04DX003 (ip), vehicle: Klucel (hydroxypropylcellulose) (HPC)
[22] = dose: 400.0 mg/kg/injection, schedule: Q04DX003 (ip), vehicle: Klucel (hydroxypropylcellulose) (HPC)
[23] = dose: 200.0 mg/kg/injection, schedule: Q01DX009 (ip), vehicle: Klucel (hydroxypropylcellulose) (HPC)

Measured: T/C

ClCCc1ccc(-n2cnc3c(Cl)ncnc32)cc1
inactive: [1] 104 % of control | [2] 106 % of control | [3] 101 % of control | [4] 98 % of control

CN(C)C(=O)Nc1cccc(OC(=O)NCCCl)c1
inactive: [5] 96 % of control | [6] 94 % of control | [7] 94 % of control

C1CSC(SCCSC2=NCCS2)=N1
inactive: dose: 62.5 mg/kg/injection, schedule: Q01DX009 (ip), vehicle: carboxymethylcellulose (CMC) 89 % of control | dose: 125.0 mg/kg/injection, schedule: Q01DX009 (ip), vehicle: carboxymethylcellulose (CMC) 100 % of control | dose: 250.0 mg/kg/injection, schedule: Q01DX009 (ip), vehicle: carboxymethylcellulose (CMC) 96 % of control

c1ccc(CCCC2CCCC2)cc1
inactive: [8] 94 % of control | dose: 75.0 mg/kg/injection, schedule: Q01DX009 (ip), vehicle: saline 106 % of control | [9] 96 % of control | dose: 150.0 mg/kg/injection, schedule: Q01DX009 (ip), vehicle: saline 108 % of control | dose: 300.0 mg/kg/injection, schedule: Q01DX001 (ip), vehicle: saline 97 % of control | dose: 300.0 mg/kg/injection, schedule: Q01DX009 (ip), vehicle: saline 106 % of control

COC(=O)c1cncc(C(=O)OC)c1
inactive: dose: 100.0 mg/kg/injection, schedule: Q04DX003 (ip), vehicle: saline sonified 95 % of control | dose: 200.0 mg/kg/injection, schedule: Q04DX003 (ip), vehicle: saline sonified 104 % of control | dose: 400.0 mg/kg/injection, schedule: Q04DX003 (ip), vehicle: saline sonified 97 % of control

c1cc[n+](CCNCC[n+]2ccccc2)cc1
inactive: [8] 93 % of control | [9] 94 % of control

COc1ccc2c(c1O)C13CCN(C)C(C2)C12C=CC(=O)C3c1c(O)ccc(O)c12 (centres undefined)
inactive: [2] 92 % of control | [3] 97 % of control | [4] 95 % of control

CNC(=S)N/N=C(\C=N\NC(=S)NC)c1ccc(OC)cc1
inactive: [10] 101 % of control | [11] 101 % of control | [12] 105 % of control

CCCNC(=O)c1ccc(NCc2cnc3nc(N)nc(N)c3n2)cc1
inactive: dose: 100.0 mg/kg/injection, schedule: Q01DX001 (ip), vehicle: Klucel (hydroxypropylcellulose) (HPC) 92 % of control | dose: 200.0 mg/kg/injection, schedule: Q01DX001 (ip), vehicle: Klucel (hydroxypropylcellulose) (HPC) 100 % of control | dose: 400.0 mg/kg/injection, schedule: Q01DX001 (ip), vehicle: Klucel (hydroxypropylcellulose) (HPC) 98 % of control

O=C(O)CCC(=O)NCCN(CCNC(=O)CCC(=O)O)C(=O)CCC(=O)O
inactive: dose: 100.0 mg/kg/injection, schedule: Q01DX001 (ip), vehicle: other 105 % of control | dose: 100.0 mg/kg/injection, schedule: Q01DX009 (ip), vehicle: water 100 % of control | dose: 100.0 mg/kg/injection, schedule: Q04DX003 (ip), vehicle: water 105 % of control | dose: 200.0 mg/kg/injection, schedule: Q01DX001 (ip), vehicle: other 100 % of control | dose: 200.0 mg/kg/injection, schedule: Q01DX009 (ip), vehicle: water 97 % of control | dose: 200.0 mg/kg/injection, schedule: Q04DX003 (ip), vehicle: water 98 % of control | dose: 400.0 mg/kg/injection, schedule: Q01DX001 (ip), vehicle: other 98 % of control | dose: 400.0 mg/kg/injection, schedule: Q01DX009 (ip), vehicle: water 97 % of control | dose: 400.0 mg/kg/injection, schedule: Q04DX003 (ip), vehicle: water 102 % of control

CCCC(=O)OC(C(=O)OCC)c1ccccc1 (centres undefined)
inactive: [13] 98 % of control | [14] 106 % of control | dose: 400.0 mg/kg/injection, schedule: Q01DX009 (ip), vehicle: saline with Tween-80 96 % of control

CCC(O)C[As](=O)(O)c1ccccc1 (centres undefined)
inactive: dose: 1.56 mg/kg/injection, schedule: Q04DX003 (ip), vehicle: saline 94 % of control | dose: 3.13 mg/kg/injection, schedule: Q04DX003 (ip), vehicle: saline 105 % of control | dose: 6.25 mg/kg/injection, schedule: Q04DX003 (ip), vehicle: saline 96 % of control

NC(=Nc1ccccc1)SCc1ccc([N+](=O)[O-])cc1
inactive: dose: 50.0 mg/kg/injection, schedule: Q01DX009 (ip), vehicle: Klucel (hydroxypropylcellulose) (HPC) 108 % of control | dose: 100.0 mg/kg/injection, schedule: Q01DX005 (ip), vehicle: Klucel (hydroxypropylcellulose) (HPC) 97 % of control | [15] 104 % of control | [10] 104 % of control | dose: 200.0 mg/kg/injection, schedule: Q01DX005 (ip), vehicle: Klucel (hydroxypropylcellulose) (HPC) 92 % of control | [11] 112 % of control | [12] 89 % of control

c1csc(C2SC(c3cccs3)SC(c3cccs3)S2)c1 (centres undefined)
inactive: [2] 100 % of control | [3] 92 % of control | [4] 95 % of control

CCCCCC/S(C)=N\S(=O)(=O)c1ccc(Br)cc1 (centres undefined)
inactive: [1] 100 % of control | [2] 103 % of control | [3] 97 % of control | [4] 114 % of control

CC1(C)C/C(=C/c2ccc([N+](=O)[O-])cc2[N+](=O)[O-])C(=O)O1
inactive: [1] 100 % of control | [2] 94 % of control | [3] 94 % of control | [4] 100 % of control

Cc1ccc(NC(=O)NCCOc2ccc(Br)cc2)c([N+](=O)[O-])c1
inactive: [16] 98 % of control | [13] 95 % of control | [5] 92 % of control | [14] 95 % of control | [6] 91 % of control | [7] 100 % of control

N#CC(O)Cc1ccccc1 (centres undefined)
inactive: [17] 95 % of control | [18] 90 % of control | [19] 97 % of control

O=C1c2ccccc2-c2ccc(-c3ccc4c5c(cccc35)C(=O)c3ccccc3-4)c3cccc1c23
inactive: [20] 89 % of control | [21] 95 % of control | [22] 89 % of control

CC(Oc1ccc(Br)cc1Br)C(=O)O (centres undefined)
inactive: [5] 93 % of control | [6] 93 % of control | [7] 95 % of control

O=NN1CC2CCC1CC2
inactive: [17] 109 % of control | [18] 109 % of control | [19] 102 % of control

NC(=O)COc1ccc(Cl)cc1Cl
inactive: [15] 111 % of control | [10] 112 % of control | [23] 101 % of control | [11] 100 % of control

CCC(=O)c1cc([N+](=O)[O-])ccc1N
inactive: [16] 100 % of control | [13] 100 % of control | [14] 100 % of control

Cc1cc[n+]([O-])cc1C
inactive: [15] 101 % of control | [10] 98 % of control | [23] 96 % of control | [11] 101 % of control

CCOC(=O)C1CCC(=O)NC1=O (centres undefined)
inactive: dose: 100.0 mg/kg/injection, schedule: Q01DX009 (ip), vehicle: saline 111 % of control | dose: 100.0 mg/kg/injection, schedule: Q04DX003 (ip), vehicle: saline 98 % of control | dose: 200.0 mg/kg/injection, schedule: Q01DX009 (ip), vehicle: saline 108 % of control | dose: 200.0 mg/kg/injection, schedule: Q04DX003 (ip), vehicle: saline 102 % of control | dose: 400.0 mg/kg/injection, schedule: Q01DX009 (ip), vehicle: saline 101 % of control | dose: 400.0 mg/kg/injection, schedule: Q04DX003 (ip), vehicle: saline 104 % of control

CCOC(=O)c1ccc2c3c(ccc(C(=O)OCC)c13)C=C2
inactive: dose: 100.0 mg/kg/injection, schedule: Q01DX001 (ip), vehicle: saline 88 % of control | dose: 200.0 mg/kg/injection, schedule: Q01DX001 (ip), vehicle: saline 96 % of control | dose: 400.0 mg/kg/injection, schedule: Q01DX001 (ip), vehicle: saline 100 % of control

O=C1c2cc(Cl)ccc2-c2c1cc(Cl)cc2[N+](=O)[O-]
inactive: [20] 100 % of control | [21] 104 % of control | [22] 98 % of control

Reference: PubChem BioAssay AID248 (DTP/NCI, 2004)
